# US5298488A, “CM-chitin derivatives and use thereof” (Fuji Photo Film Co., Ltd., priority 1990, dated 1994)
# No end group written: not given here. succinylated CM‑chitin = succinylated carboxymethyl-chitin (CM-chitin), conjugated to the peptide; sulfated CM‑chitin = sulfated carboxymethyl-chitin (CM-chitin), conjugated to the peptide; sulfated succinylated CM‑chitin = sulfated succinylated CM-chitin; succinylated CM‑Chitin = succinylated CM-chitin
# How the values were obtained:
# vitronectin = assay: Cell adhesion-inhibitory test against vitronectin (competitive assay, number of adhered cells); assay type: cell-based, human; settings: endothelium cells of blood vessel, 37° C., one hour, 0 control 249
# Excerpt: (§1) A method for determining the activity of the CM-chitin derivatives of the present invention for inhibiting adhesion of cells to fibronectin or vitronectin will be described below. The competitive assays used herein have widely been employed tin the field of biochemistry and are detailed in, for instance, "Method in Enzymology", 1981, 82, pp. 803-831; and J. P. KOKAI Nos. Hei 1-309682 and Hei 2-174797.
# (§2) Commercially available fibroneotin (derived from human; purchased from Seikaqaku Kogyo K. K.) and vitronectin (derived from human; purchased from Funakoshi Co., Ltd.) each was diluted to 1.0 μ1/ml and 2.0 μ1/ml with PBS (NaH2 PO4 0.005 M+NaCl 0.07 M), 0.5 ml of the resulting diluted solution was dispensed into a plastic plate having 24 wells and incubated at 37° C. overnight to perform coating of the plate. Then bovine serum albumin (BSA 1%) was added followed by incubation at 37° C. for one hour for inhibiting the occurrence of nonspecific adsorption, then washing with PBS in the usual manner and sufficient drainage to give an adsorption plate.
# […] Each of the solutions (0.25 ml) was dispensed to the plate prepared above, 0.25 ml of a suspension of endothelium cells of blood vessel (4×10^6 cells/ml) was added to the plate and incubated at 37° C. for one hour to thus cause cohesion of the cells. The plate was washed three times with DMEM medium to remove non-adhesive cells, then the adhered cells were peeled off with a 0.025% EDTA trypsin solution and stained with a 2% Trypan Blue solution to determine the number of the adhered cells.
# [1] = test system: human plasma rich in platelet; assay: Platelet coagulation-inhibitory activity in vitro, transmittance by aggregometer; assay type: cell-based; settings: 37° C., 3 minutes preincubation; for Platelet Coagulation-Inhibitory Action IC50, ADP Stimulation: ADP stimulation (50 μM ADP solution); for Platelet Coagulation-Inhibitory Action IC50, Collagen Stimulation: collagen stimulation (200 μg/ml collagen solution)
# Procedure: The platelet coagulation-inhibitory effect of the CM-chitin derivative of the present invention was assayed, in vitro, using human plasma rich in platelet. The experimental method will be described below.
# To fresh human blood, there was added 1/9 volume of a 3.8% sodium citrate solution, the resulting mixture was centrifuged (1000 rpm; for 10 minutes) and the upper layer was separated as a plasma rich in platelet. A lyophilized CM-chitin derivative was dissolved in physiological saline to give a plurality of solutions having various concentrations ranging from 0 to 1.5 mg/ml. Each of the solutions (25 μ1) was added to 200 µl of the plasma, incubated at 37° C. for 3 minutes, then a 50 μM of ADP (adenosine diphosphate) solution or a 200 μg/ml collagen solution was added to determine the extent of coagulation in terms of transmittance determined by an aggregometer.
# Rate of Coagulation Inhibition=(1-T/T .)×100%
# T . : transmittance observed when a salt of CM-chitin derivative was not added.
# T : transmittance observed when a salt of CM-chitin derivative was added.
# fibronectin = assay: Cell adhesion-inhibitory test against fibronectin (competitive assay, number of adhered cells); assay type: cell-based, human; settings: endothelium cells of blood vessel, 37° C., one hour, 0 mg/ml control 160
# Excerpt: as §1, §2
# A CM-chitin derivative obtained through lyophilization was diluted with Dulbecco's Modified Eagles Medium (hereunder referred to as "DMEM") to give solutions of the CM-chitin derivative having concentrations of 0, 0.25, 0.5, 1.0 and 1.5 mg/ml respectively. Each of the solutions (0.25 ml) was dispensed to the plate prepared above, 0.25 ml of a suspension of endothelium cells of blood vessel (4×10^6 cells/ml) was added to the plate and incubated at 37° C. for one hour to thus cause cohesion of the cells. The plate was washed three times with DMEM medium to remove non-adhesive cells, then the adhered cells were peeled off with a 0.025% EDTA trypsin solution and stained with a 2% Trypan Blue solution to determine the number of the adhered cells.
# [2] = concentration 10 mg/ml (so in the source)
# [3] = concentration 50 mg/ml (so in the source)
# [4] = concentration 100 mg/ml (so in the source)
# [5] = concentration 300 mg/ml (so in the source)
"Platelet Coagulation-Inhibitory Action IC50, ADP Stimulation [1]","Platelet Coagulation-Inhibitory Action IC50, Collagen Stimulation [1]",Substance,Cell Adhesion-Inhibitory effect Against Vitronectin (number of adhered cells) (vitronectin; [2]),Cell Adhesion-Inhibitory effect Against Vitronectin (number of adhered cells) (vitronectin; [3]),Cell Adhesion-Inhibitory effect Against Vitronectin (number of adhered cells) (vitronectin; [4]),Cell Adhesion-Inhibitory effect Against Vitronectin (number of adhered cells) (vitronectin; [5]),Cell Adhesion-Inhibitory effect Against Fibronectin (number of adhered cells) (fibronectin; concentration 0.5 mg/ml),Cell Adhesion-Inhibitory effect Against Fibronectin (number of adhered cells) (fibronectin; concentration 1.0 mg/ml),Cell Adhesion-Inhibitory effect Against Fibronectin (number of adhered cells) (fibronectin; concentration 1.5 mg/ml),Cell Adhesion-Inhibitory effect Against Fibronectin (number of adhered cells) (fibronectin; concentration .25 mg/ml)
28 µg/mL,9 µg/mL,Succinylated CM-Chitin Arg-Gly-Asp [CM--chitin derivative-9],139 cell/well,88 cell/well,77 cell/well,58 cell/well,97 cell/well,85 cell/well,65 cell/well,121 cell/well
20 µg/mL,13 µg/mL,Succinylated CM-Chitin-(Arg-Gly-Asp)2 ({succinylated CM‑Chitin}-RGDRGD) [CM--chitin derivative-10],136 cell/well,86 cell/well,71 cell/well,43 cell/well,110 cell/well,87 cell/well,73 cell/well,122 cell/well
21 µg/mL,12 µg/mL,Succinylated CM-Chitin-(Arg-Gly-Asp)3 ({succinylated CM‑Chitin}-RGDRGDRGD) [CM--chitin derivative-11],147 cell/well,100 cell/well,73 cell/well,45 cell/well,125 cell/well,78 cell/well,70 cell/well,143 cell/well
18 µg/mL,10 µg/mL,Succinylated CM-Chitin-Arg-Gly-Asp-Ser ({succinylated CM‑chitin}-RGDS) [CM--chitin derivative-2],137 cell/well,96 cell/well,78 cell/well,59 cell/well,99 cell/well,82 cell/well,75 cell/well,135 cell/well
15 µg/mL,6 µg/mL,Sulfated Succinylated CM-Chitin-Arg-Gly-Asp-Ser ({sulfated succinylated CM‑chitin}-RGDS) [CM--chitin derivative-15],115 cell/well,69 cell/well,54 cell/well,38 cell/well,89 cell/well,65 cell/well,37 cell/well,105 cell/well

# The next lines start with the substance.
Substance,"Platelet Coagulation-Inhibitory Action IC50, ADP Stimulation [1]","Platelet Coagulation-Inhibitory Action IC50, Collagen Stimulation [1]",Cell Adhesion-Inhibitory effect Against Vitronectin (number of adhered cells) (vitronectin; [2]),Cell Adhesion-Inhibitory effect Against Vitronectin (number of adhered cells) (vitronectin; [3]),Cell Adhesion-Inhibitory effect Against Vitronectin (number of adhered cells) (vitronectin; [4]),Cell Adhesion-Inhibitory effect Against Vitronectin (number of adhered cells) (vitronectin; [5]),Cell Adhesion-Inhibitory effect Against Fibronectin (number of adhered cells) (fibronectin; concentration 0.5 mg/ml),Cell Adhesion-Inhibitory effect Against Fibronectin (number of adhered cells) (fibronectin; concentration 1.0 mg/ml),Cell Adhesion-Inhibitory effect Against Fibronectin (number of adhered cells) (fibronectin; concentration 1.5 mg/ml),Cell Adhesion-Inhibitory effect Against Fibronectin (number of adhered cells) (fibronectin; concentration .25 mg/ml)
Succinylated CM-Chitin Gly-Arg-Gly-Asp-Ser (GRGDS; also: conjugated to succinylated CM-chitin) [CM--chitin derivative-8],24 µg/mL,14 µg/mL,130 cell/well,95 cell/well,69 cell/well,47 cell/well,113 cell/well,80 cell/well,59 cell/well,130 cell/well
Succinylated CM-Chitin-(Arg-Gly-Asp)5 ({succinylated CM‑Chitin}-RGDRGDRGDRGDRGD) [CM--chitin derivative-12],30 µg/mL,8 µg/mL,150 cell/well,101 cell/well,80 cell/well,59 cell/well,101 cell/well,89 cell/well,77 cell/well,125 cell/well
Sulfated CM-Chitin-Arg-Gly-Asp-Ser ({sulfated CM‑chitin}-RGDS) [CM--chitin derivative-13],17 µg/mL,7 µg/mL,103 cell/well,70 cell/well,47 cell/well,31 cell/well,77 cell/well,57 cell/well,33 cell/well,97 cell/well
Sulfated CM-Chitin-Gly-Arg-Gly-Asp-Ser ({sulfated CM‑chitin}-GRGDS) [CM--chitin derivative-14],12 µg/mL,3 µg/mL,107 cell/well,78 cell/well,43 cell/well,34 cell/well,93 cell/well,68 cell/well,41 cell/well,111 cell/well
